Read-outs that look alike come from different tables or passages of the source.
What was measured:
[1] = system: automatic TBARS reproduction of the rat brain homogenate; assay: Measurement of Anti-oxidation Function (inhibition of automatic TBARS reproduction of rat brain homogenate); type: biochemical; details: inhibition of TBARS in rat brain homogenate
HMG-CoA Reductase = target: T1, HMG-CoA Reductase (Rattus norvegicus, UniProt P51639); assay: Measurement of Inhibitory Activity on HMG-CoA Reductase (activity ratio of biosynthesis of cholesterol); type: biochemical
T1 construct: from tissue
T1 sequence (P51639 1-887): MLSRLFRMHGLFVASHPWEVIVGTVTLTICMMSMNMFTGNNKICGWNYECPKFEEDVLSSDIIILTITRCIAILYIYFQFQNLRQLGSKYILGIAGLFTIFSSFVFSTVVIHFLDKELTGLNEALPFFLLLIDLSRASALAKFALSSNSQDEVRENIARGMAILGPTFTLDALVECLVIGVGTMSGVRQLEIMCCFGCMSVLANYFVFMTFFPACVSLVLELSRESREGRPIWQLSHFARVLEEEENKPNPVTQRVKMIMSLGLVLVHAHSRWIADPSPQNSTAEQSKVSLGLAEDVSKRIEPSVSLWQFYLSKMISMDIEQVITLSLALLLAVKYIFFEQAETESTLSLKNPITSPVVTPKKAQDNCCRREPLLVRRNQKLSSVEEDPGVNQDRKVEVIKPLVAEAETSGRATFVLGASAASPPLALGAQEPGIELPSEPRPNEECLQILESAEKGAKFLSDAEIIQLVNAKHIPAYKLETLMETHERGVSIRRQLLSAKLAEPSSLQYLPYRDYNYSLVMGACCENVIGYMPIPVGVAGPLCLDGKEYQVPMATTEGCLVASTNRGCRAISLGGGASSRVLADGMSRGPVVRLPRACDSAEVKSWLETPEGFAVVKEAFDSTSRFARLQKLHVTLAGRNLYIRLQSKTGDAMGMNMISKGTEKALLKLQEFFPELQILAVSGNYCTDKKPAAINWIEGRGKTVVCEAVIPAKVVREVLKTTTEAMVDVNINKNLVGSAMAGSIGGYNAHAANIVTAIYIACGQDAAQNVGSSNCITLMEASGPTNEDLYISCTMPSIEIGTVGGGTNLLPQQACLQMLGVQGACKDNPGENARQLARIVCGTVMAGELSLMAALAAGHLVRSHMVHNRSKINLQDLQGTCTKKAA

[2] = system: total serum cholesterol in model rats with Triton-induced hyperlipemia; assay: Measurement of Reduction in Cholesterol Value (total serum cholesterol, Triton-induced hyperlipemia model rats); type: in vivo, rat; details: value of Compactin (ML-236B) as reference (100)
[3] = Relative value when the value of Compactin is 100

Structure (SMILES)	Activity ratio of Biosynthesis of Cholesterol, Reactive Inhibitory Potency (HMG-CoA Reductase; [3])	IC50 [1] [µM]	Reduction of Cholesterol Value [2]	Activity ratio of Biosynthesis of Cholesterol, Reactive Inhibitory Potency (HMG-CoA Reductase)
Cc1c(CC[C@H]2C[C@H](O)CC(=O)O2)c2c(c(C)c1N1CCCC1)CC(C)(C)O2 (racemic) [Compound No. 17, trans-(±)-6-[2,3-dihydro-2,2,4,6-tetramethyl-5-(pyrrolidin-1-yl)benzo[b]furan-7-yl]ethyl-4-hydroxytetrahydropyran-2-one]	–	1.49	–	–
CC1(C)Cc2cc(N3Cc4ccccc4C3)c(C(C)(C)C)c(CCC(O)CC(O)CC(=O)O)c2O1 (stereo not shown) [Compound No. 93, sodium 7-[6-(t-butyl)-2,3-dihydro-5-(isoindolin-2-yl)-2,2-dimethylbenzo[b]furan-7-yl]-3,5-dihydroxyheptanoate]	–	2	–	–
Cc1c(CCC(O)CC(O)CC(=O)O)c2c(c(C)c1-n1cc3ccccc3c1)CC(C)(C)O2 (racemic) [Compound No. 94, sodium 7-[2,3-dihydro-5-isoindolyl-2,2,4,6-tetramethylbenzo[b]furan-7-yl]-3,5-dihydroxyheptanoate]	1550	–	–	–
Cc1c(CCC(O)CC(O)CC(=O)[O-])c2c(c(C)c1N1Cc3ccccc3C1)CC(C)(C)O2.[Na+] (stereo not shown) [Compound No. 15, sodium 7-[2,3-dihydro-5-(isoindolin-2-yl)-2,2,4,6-tetramethylbenzo[b]furan-7-yl]-3,5-dihydroxyheptanoate]	–	1.67	320	830
CC[C@H](C)C(=O)O[C@H]1CCC=C2C=C[C@H](C)[C@H](CC[C@@H]3C[C@@H](O)CC(=O)O3)[C@H]21 [Compactin, reference compound]	–	–	100	–
Cc1c(CC[C@H]2C[C@H](O)CC(=O)O2)c2c(c(C)c1N1CCc3ccccc3C1)CC(C)(C)O2 (racemic) [Compound No. 24, trans-(±)-6-[2,3-dihydro-5-(1,2,3,4-tetrahydroisoquinolin-2-yl)-2,2,4,6-tetramethylbenzo[b]furan-7-yl]ethyl-4-hydroxytetrahydropyran-2-one]	–	1.63	–	–
Cc1c(N)c(C)c2c(c1CC[C@H]1C[C@H](O)CC(=O)O1)OC(C)(C)C2 (racemic) [Compound No. 10, trans-(±)-6-[5-amino-2,3-dihydro-2,2,4,6-tetramethylbenzo[b]furan-7-yl]ethyl-4-hydroxytetrahydropyran-2-one]	–	2.75	–	–
Cc1c(CCC(O)CC(O)CC(=O)O)c2c(c(C)c1N1Cc3ccccc3C1)CC(C)(C)O2 (stereo not shown) [Compound No. 12, 7-[2,3-dihydro-5-(isoindolin-2-yl)-2,2,4,6-tetramethylbenzo[b]furan-7-yl]3,5-dihydroxyheptoic acid]	1500	1.58	330	–
CC(C)c1c(N2Cc3ccccc3C2)cc2c(c1CCC(O)CC(O)CC(=O)[O-])OC(C)(C)C2.[Na+] (stereo not shown) [Compound No. 76, sodium 7-[2,3-dihydro-5-(isoindolin-2-yl)-2,2-dimethyl-6-(propan-2-yl)benzo[b]furan-7-yl]-3,5-dihydroxyheptanoate]	–	6.5	–	2730

Further lines, with some results ahead:

Activity ratio of Biosynthesis of Cholesterol, Reactive Inhibitory Potency (HMG-CoA Reductase; [3])	Structure (SMILES)	IC50 [1] [µM]	Reduction of Cholesterol Value [2]	Activity ratio of Biosynthesis of Cholesterol, Reactive Inhibitory Potency (HMG-CoA Reductase)
250	Cc1c(CC[C@@H]2C[C@@H](O)CC(=O)O2)c2c(c(C)c1-n1cc3ccccc3c1)CC(C)(C)O2 (relative stereo) [Compound No. 14, trans-(±)-6-[2,3-dihydro-5-isoindolyl-2,2,4,6-tetramethylbenzo[b]furan-7-yl]ethyl-4-hydroxytetrahydropyran-2-one]	–	–	–
170	Cc1c2c(c(CC[C@H]3C[C@H](O)CC(=O)O3)c(C(C)C)c1NCc1ccccc1)OC(C)(C)C2 (racemic) [Compound No. 43, trans-(±)-6-[5-benzylamino-2,3-dihydro-2,2,4-trimethyl-6-(propan-2-yl)benzo[b]furan-7-yl]ethyl-4-hydroxytetrahydropyran-2-one]	–	–	–
250	Cc1c(CC[C@H]2C[C@H](O)CC(=O)O2)c2c(c(C)c1N1Cc3ccccc3C1)CC(C)(C)O2 (racemic) [Compound No. 13, trans-(±)-6-[2,3-dihydro-5-(isoindolin-2-yl)-2,2,4,6-tetramethylbenzo[b]furan-7-yl]ethyl-4-hydroxytetrahydropyran-2-one]	1.44	180	–
